# Measurements reported in US4049802A (Research Corporation, priority 1975, dated 1977).
# Read-outs that look alike come from different tables or passages of the source.
# How the values were obtained:
# [1] = Minimum inhibitory concentration (growth at drug concentrations) and effect of para-aminobenzoic acid (PABA), Table II; assay type: cell-based
# Pseudomonas = experiment: Minimum inhibitory concentrations vs Pseudomonas, Table V; assay type: cell-based
Compound,Growth (minimum inhibitory concentration series) ([1]; 0.1 μ mole/ml drug),Growth (minimum inhibitory concentration series) ([1]; 0.4 μ mole/ml drug),Growth (minimum inhibitory concentration series) ([1]; 0.5 μ mole/ml drug),"Growth, drug + PABA ([1]; 0.5 μ mole/ml drug + PABA 0.05)",Growth (minimum inhibitory concentration series) ([1]; 0.6 μ mole/ml drug),Growth (minimum inhibitory concentration series) ([1]; 0.8 μ mole/ml drug),Growth (minimum inhibitory concentration series) ([1]; 1.0 μ mole/ml drug),"Growth, drug + PABA ([1]; 1.0 μ mole/ml drug + PABA 0.1)",Growth (minimum inhibitory concentration series) ([1]; 2.0 μ mole/ml drug),"Growth, drug + PABA ([1]; 2.0 μ mole/ml drug + PABA 0.01)","Growth, drug + PABA ([1]; 2.0 μ mole/ml drug + PABA 0.1)","Growth, drug + PABA ([1]; 2.0 μ mole/ml drug + PABA 0.2)",Minimum Inhibitory Concentration vs Pseudomonas (Pseudomonas; listed as Na Sulfadiazine) [μM/L],PAB to Block (Pseudomonas; listed as Na Sulfadiazine),PAB to Block (Pseudomonas),"MIC (Pseudomonas; Pseudomonas, read-out: Minimum Inhibitory Concentration vs Pseudomonas) [µM]",Growth (minimum inhibitory concentration series) ([1]; 0.05 μ mole/ml drug)
"Nc1ccc(S(=O)(=O)Nc2ncccn2)cc1 [Sodium Sulfadiazine, sodium sulfadiazine]",+,+,+,+,+,-,-,+,-,+,+,+,80,1/200,,,
NCc1ccc(S(N)(=O)=O)cc1 [Sulfamylon],,,,,,,,,,,,,,,neg.,500,
"CC(=O)[O-].CC(=O)[O-].[Zn+2] [Zinc Acetate, zinc acetate]",+,,+,,,,+,,,,,,,,,,+
